Assay results published in patent publication US9409975B2, “Antibody binding microbial heparin binding motif to retard or prevent microbial biofilm formation on implanted medical devices” (priority 2012, dated 2016).

Test system: C. albicans binding to heparin
Test: Inhibition of binding of CFSE-labeled C. albicans to plate-bound heparin (antibody and heparin inhibition studies)
Format: cell-based, Candida albicans
Method: A single colony of C. albicans was suspended in CSM to an OD600 of 0.1, diluted 1:200 into 25 ml CSM and grown at 30° C. overnight to mid-log phase (OD600 0.6-0.7). Cells were washed twice in sterile PBS and suspended in PBS at 2×10^7 CFU/ml. Carboxyfluorescein succinimidyl ester (Life Technologies) was dissolved in DMSO, diluted in PBS to 50 μM, and 0.5 ml CFSE mixed with 0.5 ml C. albicans suspension. The mixture was incubated for 20 min at room temperature on a rotator, washed once with FACS buffer, once with PBS, then suspended in 1 ml FACS buffer. Intensity of labeling was determined as the mean fluorescence intensity using a BD Accuri C6 cytometer (San Jose, Calif.) with excitation at 488 nm and a 533/30 emission filter. […] The following afternoon, C. albicans wild type strain and mutants were labeled with CFSE as follows: after growth of C. albicans to mid-log phase in CSM medium, organisms were washed two times in PBS and suspended in PBS at a concentration of 2×10^7/ml. 0.5 ml cells was mixed with 0.5 ml CFSE, covered in foil, and rotated on a mixer for 20 minutes at room temperature. […] At the end of the incubation period, wells were washed three times with PBS, and fluorescence in each well was measured (Beckman Coulter Multimode detector DTX880). […]

Substance: heparin
- binding of C. albicans to solid-phase heparin after preincubation with heparin, in words (2.5 units (12.5 μg) solid-phase heparin): significantly decreased
- decrease in binding of C. albicans to heparin after pre-incubation with soluble heparin (CFSE-labeled C. albicans pre-incubated with 100 units/ml heparin, p=0.022, data not shown): 27%
